The experiment has as its system A2780 cells. Nature of the experiment: DNA platination in A2780 cells. The format is cell-based, human. Particulars: A2780, 24 h CT, 10 μM. Here is the method: Cells were seeded in 175 cm^2 flasks and treated for 24 h with the complexes under investigation (10 μM) as described previously. From this sample, about 5 × 10^6 cells were taken out for the cellular accumulation analysis (see the previous section), whereas about 20 × 10^6 cells were taken out for the DNA platination analysis.
For DNA platination analysis, cells were transferred to a plastic tube and centrifuged at 1100 rpm for 5 min at room temperature. […]
After washing, DNA was eluted in 300 μL of elution buffer. […] Absorbance at 260 nm (A260, relative to nucleic acids) and 280 nm (A280, relative to proteins) was recorded from triplicate wells.
For each well, A260 and A280 were corrected by subtracting the background, and then the purity of the samples was verified by means of the A260 to A280 ratio. After subtracting the mean A260 from the blank wells, the DNA concentration was calculated from the corrected A260 using a calibration curve obtained with the calf thymus DNA. Under these conditions, an absorbance of 1 unit at 260 nm corresponds to 100 μg of DNA per mL. The remaining amount of DNA elution buffer was transferred to a borosilicate glass tube, and its precise volume was determined by weight to calculate the total amount of DNA and then stored at −20°C until mineralization. […]

Experimental findings from PMC9822769, “The Strange Case: The Unsymmetric Cisplatin-Based Pt(IV) Prodrug [Pt(CH3COO)Cl2(NH3)2(OH)] Exhibits Higher Cytotoxic Activity with respect to Its Symmetric Congeners due to Carrier-Mediated Cellular Uptake” (Bioinorganic Chemistry and Applications, 2022) are described below.

`CC(=O)[O][Pt]([OH])([Cl])[Cl].N.N` [Complex 2, (OC-6-44)-acetatodiamminedichloridohydroxidoplatinum(IV)]: the DNA platination entry is “the highest among Complexes 1–3 and was similar to that of cisplatin”.
